The source of these data is patent US8962692B2, “Cysteine and cystine prodrugs to treat schizophrenia and reduce drug cravings” (Marquette University, priority 2008, dated 2015).

Bounds are passed on as bounds.

Data set [1] concerns PCP-induced deficits in sensorimotor gating. The data set can be described thus: Prepulse inhibition of startle response; reversal of PCP-induced deficits in sensorimotor gating. The conditions noted are these: for inhibition of startle response (prepulse inhibition): difference relative to rats receiving PCP alone and/or N-acetylcysteine 30 mg/kg: compound pretreatment 60 min, prepulse 2-15 dB above background, Fisher LSD p<0.05.

For data set [2], the system named is cocaine-induced reinstatement. The data set can be described thus: Extinction/reinstatement paradigm: cocaine-induced reinstatement of lever pressing. It is filed as in vivo. To be noted: rats, cocaine 10 mg/kg IP.
Data set [3] deals with cocaine use and craving. The conditions noted are these: cocaine abusers receiving NAC, clinical data; cited from earlier work.
Data set [4] relates to compulsive drug-seeking. To be noted: rodents, preclinical studies; cited from earlier work.
The conditions of data set [5]: human subjects; cited from earlier work.
[6] abbreviates: rats, phencyclidine 1.25 mg/kg SC.

As usually defined, the melting point is the temperature of the solid-liquid transition. As for `O=C1CNC(=O)[C@@H](CSC(c2ccccc2)(c2ccccc2)c2ccccc2)N1` (stereo in doubt) [Compound 3c-a, 3-Tritylsulfanylmethyl-piperazine-2,5-dione], the melting point is 225 to 227 °C.
For the compound `O=C1N[C@@H](CSSc2ccccc2)C(=O)N2CCC[C@H]12` [Compound 3b-c, (3R,8aR)-3-((phenyldisulfanyl)methyl)hexahydropyrrolo[1,2-a]pyrazine-1,4-dione], the melting point worked out at 120 °C.
On to `O=C1CNC(=O)[C@H](CS)N1` [Compound 4a, 2,5-piperazinedione, 3-(mercaptomethyl)-], for which the melting point was found to be 258 °C. The “inhibition of startle response (prepulse inhibition): difference relative to rats receiving PCP alone and/or N-acetylcysteine 30 mg/kg” value in data set [1] (setting [6]) is recorded as “significant difference”.
`CC(C)[C@H]1NC(=O)[C@H](CS)NC1=O` [Compound 4d, (6R)-3-isopropyl-6-(mercaptomethyl)piperazine-2,5-dione] showed a melting point greater than 275 °C.
On the same count and under the same terms, next, `CC(C)(C)SC[C@H]1NC(=O)[C@H](CS)NC1=O` [Compound 4e, (6R)-3-(tert-butylthiomethyl)-6-(mercaptomethyl)piperazine-2,5-dione]: > 280 °C (dec.).
As for `CCOC1=N[C@@H](CS)C(OCC)=NC1` [Compound 5a, (3,6-Diethoxy-2,5-dihydro-,pyrazin-2-yl)-methanethiol], in data set [1] (setting [6]), the “inhibition of startle response (prepulse inhibition): difference relative to rats receiving PCP alone and/or N-acetylcysteine 30 mg/kg” value is reported as “significant difference”.
`CCOC1=N[C@@H](CSSC[C@H]2N=C(OCC)CN=C2OCC)C(OCC)=NC1` [Compound 5a-D, Bis[(3,6-Diethoxy-2,5-dihy-dro-pyrazin-2-yl)-methanethiol]]: the cocaine-induced reinstatement result in data set [2] (1 mg/kg (p.o.), comparable to 30 mg/kg NAC) is given as “sufficient to block cocaine-induced reinstatement”. The “inhibition of startle response (prepulse inhibition): difference relative to rats receiving PCP alone and/or N-acetylcysteine 30 mg/kg” value in data set [1] (setting [6]) is “significant difference”.
As to `CCOC1=N[C@@H](CSCC)C(=O)N[C@@H]1Cc1ccccc1` [Compound 6b-b, (3R,6R)-6-Benzyl-5-ethoxy-3-(ethylthiomethyl)-1,6-dihydropyrazin-2(3H)-one], the melting point is 118 °C.
`O=C1CNC(=O)[C@H](CSSC[C@@H]2NC(=O)CNC2=O)N1` [Compound 7a, Bis[2,5-Piperazinedione, 3-(mercaptomethyl)-]]: the “inhibition of startle response (prepulse inhibition): difference relative to rats receiving PCP alone and/or N-acetylcysteine 30 mg/kg” value in data set [1] (setting [6]) is reported as “significant difference”.
On the same count and under the same terms, as for `O=C1CNC(=O)[C@H](CSSC[C@H]2NC(=O)[C@H](Cc3ccccc3)NC2=O)N1` [Compound 11-a-b], the entry is “significant difference”; as for `CC(C)C1NC(=O)[C@@H](CSSC[C@@H]2NC(=O)CNC2=O)NC1=O` (stereo partly shown) [Compound 11-a-d], “significant difference”.
As to `CC(=O)N[C@@H](CS)C(=O)O` [N-acetyl cysteine], the cocaine-induced reinstatement result in data set [2] (30 mg/kg IP, responding 120 min) is reported as “significant reduction”; in data set [2] (60 mg/kg IP, responding 120 min), “significant reduction”; in data set [2] (given orally), “less effective”. The “cocaine use and craving” value in data set [3] was “reduction in cocaine use and craving”. In data set [1] (direct delivery into the brain (prefrontal cortex)), the “phencyclidine-induced deficits in sensorimotor gating” value was “reverses phencyclidine-induced deficits in sensorimotor gating”. Also, the “sensorimotor gating (prepulse inhibition) after PCP” value in data set [1] (rats, N-acetyl cysteine 30 mg/kg po, pretreated 60 min, phencyclidine 1.25 mg/kg SC) is reported as “failed to exhibit sensorimotor gating”. Moreover, the compulsive drug-seeking result in data set [4] was “effective in blocking compulsive drug-seeking”. Moreover, in data set [5], the safety/tolerability profile result was “favorable safety/tolerability profile”.
Take `c1ccc(C2(N3CCCCC3)CCCCC2)cc1` [PCP, phencyclidine, reference compound]: the “effect of PCP on prepulse inhibition” value in data set [1] (rats, pcp 0-2.0 mg/kg, FIG. 4) is listed as “disrupt prepulse inhibition”.
